Measured values reported in publication PMC9500072, “Topical application of an irreversible small molecule inhibitor of lysyl oxidases ameliorates skin scarring and fibrosis” (Nature Communications, 2022).

Key:
HepG2 cells = assay: Phospholipidosis in HepG2 cells; format: cell-based; conditions: 0–100 µM
[1] = tested on: primary dermal fibroblasts; assay: Procollagen I FRET measurement, scar-in-a-jar; format: cell-based, human; conditions: highest dose (10 µM)
primary scar fibroblasts = assay: Scar-in-a-jar collagen I immunofluorescence (deposition, coherency); format: cell-based, human
Protocol: Fibrillar collagen I deposition was measured using confocal image analysis (Fig. 4f–k). […] Furthermore, coherency analysis[18] was used to determine collagen alignment. This analysis specifically analyses the alignment of collagen fibers, with more alignment increasing the score and more random distribution provided a lower score. In scar tissue scores are higher as fibers are densely parallel aligned in contrast to normal skin[18].
An experimental ‘Scar-in-a-jar’ protocol developed by Chen and Raghunath[36] was followed for quantitation of collagen per cell and to measure the orientation of collagen under fibrotic conditions in vitro. […] The images then further analyzed for collagen coherency measurements using ‘Fiji is just image j’s’ (FIJI) orientation J application as previously reported[18],[37]. For quantitation of collagen per cell, an image of whole chamber slide was captured using fluorescence microscope (Nikon inverted microscope). The 488 nm green and Hoechst stained blue images were collected, and analyzed using NIS-Elements software (Nikon, Japan). The six ROIs were selected from each image and the binary thresholds were recorded for each corresponding image. […]

[2] = Stability in cream formulations; format: physicochemical
Adenosine A1 = Adenosine A1 (Homo sapiens, UniProt P30542); assay: Eurofins panel 200510; format: binding
Adrenergic α1B = Adrenergic α1B (Rattus norvegicus, UniProt P15823); assay: Eurofins panel 203200; format: binding
Endothelin ETB = Endothelin ETB (Homo sapiens, UniProt P24530); assay: Eurofins panel 224110; format: binding
GABAB1A = GABAB1A (Homo sapiens, UniProt Q9UBS5); assay: Eurofins panel 228610; format: binding
Imidazoline I2, Central = assay: Eurofins panel 241000; format: binding, rat; conditions: 10 µM
[3] = molecular target: Nicotinic Acetylcholine α1, Bungarotoxin (Homo sapiens, UniProt P02708+P07510+Q07001); assay: Eurofins panel 258700; format: binding; conditions: read-out: % Inh.
Purinergic P2X = assay: Eurofins panel 268700; format: binding, rabbit; conditions: 10 µM
Tachykinin NK1 = Tachykinin NK1 (Homo sapiens, UniProt P25103); assay: Eurofins panel 255520; format: binding
Cannabinoid CB2 = Cannabinoid CB2 (Homo sapiens, UniProt P34972); assay: Eurofins panel 217100; format: binding
Chain of Cannabinoid CB2 (P34972 whole entry): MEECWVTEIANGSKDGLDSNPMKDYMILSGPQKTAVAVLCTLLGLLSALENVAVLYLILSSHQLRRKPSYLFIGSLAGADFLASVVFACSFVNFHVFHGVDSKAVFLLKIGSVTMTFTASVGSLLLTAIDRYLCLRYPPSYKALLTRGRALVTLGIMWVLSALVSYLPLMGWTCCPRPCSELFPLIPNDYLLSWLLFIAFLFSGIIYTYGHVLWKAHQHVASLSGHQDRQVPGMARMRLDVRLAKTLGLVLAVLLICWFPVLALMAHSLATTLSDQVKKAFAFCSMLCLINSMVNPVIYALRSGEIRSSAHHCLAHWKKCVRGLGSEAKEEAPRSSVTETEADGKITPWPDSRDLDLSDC

Chain of Tachykinin NK1 (P25103 whole entry): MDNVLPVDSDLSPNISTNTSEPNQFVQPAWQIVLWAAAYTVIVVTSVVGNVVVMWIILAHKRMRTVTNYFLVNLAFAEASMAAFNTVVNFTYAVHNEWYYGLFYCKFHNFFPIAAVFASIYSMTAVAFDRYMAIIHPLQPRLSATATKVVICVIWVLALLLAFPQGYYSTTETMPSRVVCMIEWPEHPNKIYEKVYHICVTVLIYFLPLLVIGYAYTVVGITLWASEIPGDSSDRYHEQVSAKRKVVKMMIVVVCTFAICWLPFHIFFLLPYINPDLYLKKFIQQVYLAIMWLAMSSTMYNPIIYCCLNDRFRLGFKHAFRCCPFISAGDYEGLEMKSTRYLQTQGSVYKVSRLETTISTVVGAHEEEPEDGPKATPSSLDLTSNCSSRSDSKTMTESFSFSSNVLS
Chain of Adrenergic α1B (P15823 whole entry): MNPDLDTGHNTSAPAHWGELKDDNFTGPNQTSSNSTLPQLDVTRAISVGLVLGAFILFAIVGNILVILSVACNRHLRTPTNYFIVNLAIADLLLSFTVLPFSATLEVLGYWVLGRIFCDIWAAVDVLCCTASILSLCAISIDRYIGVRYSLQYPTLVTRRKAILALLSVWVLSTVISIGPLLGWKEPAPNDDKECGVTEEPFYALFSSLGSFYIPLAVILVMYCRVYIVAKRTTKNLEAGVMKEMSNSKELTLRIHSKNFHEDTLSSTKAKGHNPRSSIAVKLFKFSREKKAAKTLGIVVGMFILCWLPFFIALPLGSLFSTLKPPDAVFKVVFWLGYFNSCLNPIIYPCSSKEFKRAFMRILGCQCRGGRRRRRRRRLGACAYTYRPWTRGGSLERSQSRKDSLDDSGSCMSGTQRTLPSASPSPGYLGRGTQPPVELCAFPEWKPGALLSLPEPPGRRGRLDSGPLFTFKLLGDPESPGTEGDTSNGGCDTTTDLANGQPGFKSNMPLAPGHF
Chain of Adenosine A1 (P30542 whole entry): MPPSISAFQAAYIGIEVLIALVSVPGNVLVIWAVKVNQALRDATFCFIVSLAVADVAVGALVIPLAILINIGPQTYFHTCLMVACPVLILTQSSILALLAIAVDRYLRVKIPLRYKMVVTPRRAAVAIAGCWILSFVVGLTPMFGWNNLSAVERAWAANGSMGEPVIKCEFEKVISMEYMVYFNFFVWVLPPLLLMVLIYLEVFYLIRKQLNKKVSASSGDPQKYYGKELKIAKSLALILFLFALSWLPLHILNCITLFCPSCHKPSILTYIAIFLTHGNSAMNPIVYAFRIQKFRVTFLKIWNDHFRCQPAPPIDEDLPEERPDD
Chain of GABAB1A (Q9UBS5 15-961 limits assumed): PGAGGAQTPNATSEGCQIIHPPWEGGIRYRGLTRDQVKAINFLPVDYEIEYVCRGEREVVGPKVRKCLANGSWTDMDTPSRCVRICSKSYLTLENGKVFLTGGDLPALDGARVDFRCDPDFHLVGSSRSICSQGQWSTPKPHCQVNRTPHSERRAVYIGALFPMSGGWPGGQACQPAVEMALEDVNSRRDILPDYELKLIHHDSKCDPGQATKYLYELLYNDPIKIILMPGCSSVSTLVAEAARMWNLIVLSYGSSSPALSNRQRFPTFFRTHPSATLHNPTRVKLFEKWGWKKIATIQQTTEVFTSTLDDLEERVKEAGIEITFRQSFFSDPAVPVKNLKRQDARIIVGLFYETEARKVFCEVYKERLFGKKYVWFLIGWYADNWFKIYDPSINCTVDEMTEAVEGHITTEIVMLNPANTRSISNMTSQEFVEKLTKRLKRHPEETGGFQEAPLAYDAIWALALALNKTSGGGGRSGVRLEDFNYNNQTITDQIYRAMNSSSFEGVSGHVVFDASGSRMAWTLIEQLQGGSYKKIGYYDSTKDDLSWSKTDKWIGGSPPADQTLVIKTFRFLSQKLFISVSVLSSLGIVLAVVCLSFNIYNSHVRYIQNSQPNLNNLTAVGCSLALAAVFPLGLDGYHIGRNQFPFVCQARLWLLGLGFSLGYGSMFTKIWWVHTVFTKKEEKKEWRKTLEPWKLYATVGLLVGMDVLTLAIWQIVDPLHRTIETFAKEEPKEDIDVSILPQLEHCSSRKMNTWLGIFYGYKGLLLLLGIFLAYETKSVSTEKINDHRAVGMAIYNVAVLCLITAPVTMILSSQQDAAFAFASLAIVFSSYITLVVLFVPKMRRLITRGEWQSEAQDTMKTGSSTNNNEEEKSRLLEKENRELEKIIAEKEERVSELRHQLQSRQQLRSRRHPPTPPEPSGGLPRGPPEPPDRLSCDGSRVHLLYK
Chain of Endothelin ETB (P24530 27-442): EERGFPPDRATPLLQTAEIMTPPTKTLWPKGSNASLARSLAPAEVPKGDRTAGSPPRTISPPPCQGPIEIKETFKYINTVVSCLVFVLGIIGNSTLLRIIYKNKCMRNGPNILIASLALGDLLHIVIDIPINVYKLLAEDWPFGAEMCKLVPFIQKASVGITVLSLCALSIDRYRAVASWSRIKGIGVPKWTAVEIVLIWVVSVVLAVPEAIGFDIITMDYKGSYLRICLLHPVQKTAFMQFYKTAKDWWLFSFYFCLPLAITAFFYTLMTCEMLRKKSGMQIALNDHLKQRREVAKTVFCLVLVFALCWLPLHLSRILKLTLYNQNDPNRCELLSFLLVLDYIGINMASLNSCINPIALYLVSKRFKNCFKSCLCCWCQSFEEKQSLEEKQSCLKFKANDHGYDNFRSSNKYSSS
Chain of Nicotinic Acetylcholine α1, Bungarotoxin (P07510 23-517): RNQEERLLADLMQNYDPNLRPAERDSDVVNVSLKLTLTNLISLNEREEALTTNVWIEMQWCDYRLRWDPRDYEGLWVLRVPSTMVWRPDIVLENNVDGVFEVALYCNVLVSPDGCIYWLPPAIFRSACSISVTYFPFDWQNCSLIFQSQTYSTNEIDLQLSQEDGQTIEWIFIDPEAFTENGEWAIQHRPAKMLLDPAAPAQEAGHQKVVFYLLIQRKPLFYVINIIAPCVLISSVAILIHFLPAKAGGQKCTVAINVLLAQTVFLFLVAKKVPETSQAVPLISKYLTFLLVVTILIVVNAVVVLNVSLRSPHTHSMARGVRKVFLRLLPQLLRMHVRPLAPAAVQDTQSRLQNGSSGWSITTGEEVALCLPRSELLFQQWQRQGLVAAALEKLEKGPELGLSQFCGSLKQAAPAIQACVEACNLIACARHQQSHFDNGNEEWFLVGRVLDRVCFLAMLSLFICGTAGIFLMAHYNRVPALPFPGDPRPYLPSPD
Chain of Nicotinic Acetylcholine α1, Bungarotoxin (P11230 24-501, further chain): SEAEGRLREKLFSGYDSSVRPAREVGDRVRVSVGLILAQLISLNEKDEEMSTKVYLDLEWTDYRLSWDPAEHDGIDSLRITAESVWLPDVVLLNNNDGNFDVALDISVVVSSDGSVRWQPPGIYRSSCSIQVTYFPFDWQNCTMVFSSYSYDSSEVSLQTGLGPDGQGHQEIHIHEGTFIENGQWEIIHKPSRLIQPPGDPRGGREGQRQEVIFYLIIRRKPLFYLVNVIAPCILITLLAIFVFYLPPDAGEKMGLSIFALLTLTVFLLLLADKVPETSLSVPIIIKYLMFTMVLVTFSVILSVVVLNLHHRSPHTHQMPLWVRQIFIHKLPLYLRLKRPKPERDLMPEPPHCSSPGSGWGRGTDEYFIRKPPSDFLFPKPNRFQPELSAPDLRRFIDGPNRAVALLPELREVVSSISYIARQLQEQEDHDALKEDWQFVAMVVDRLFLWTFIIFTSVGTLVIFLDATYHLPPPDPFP
Chain of Nicotinic Acetylcholine α1, Bungarotoxin (P02708 21-457): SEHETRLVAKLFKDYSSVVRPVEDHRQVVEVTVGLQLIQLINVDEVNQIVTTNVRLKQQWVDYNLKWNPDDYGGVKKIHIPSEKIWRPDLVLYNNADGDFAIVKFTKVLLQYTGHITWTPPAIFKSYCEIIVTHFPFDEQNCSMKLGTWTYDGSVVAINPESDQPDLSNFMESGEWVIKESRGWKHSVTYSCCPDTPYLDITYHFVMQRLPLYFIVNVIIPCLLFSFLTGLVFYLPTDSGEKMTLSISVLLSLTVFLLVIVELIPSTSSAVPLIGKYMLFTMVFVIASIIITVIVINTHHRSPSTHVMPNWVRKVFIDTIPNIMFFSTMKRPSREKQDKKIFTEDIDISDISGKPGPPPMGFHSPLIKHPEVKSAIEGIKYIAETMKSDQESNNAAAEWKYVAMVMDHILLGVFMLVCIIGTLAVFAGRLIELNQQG
Chain of Nicotinic Acetylcholine α1, Bungarotoxin (Q07001 22-517): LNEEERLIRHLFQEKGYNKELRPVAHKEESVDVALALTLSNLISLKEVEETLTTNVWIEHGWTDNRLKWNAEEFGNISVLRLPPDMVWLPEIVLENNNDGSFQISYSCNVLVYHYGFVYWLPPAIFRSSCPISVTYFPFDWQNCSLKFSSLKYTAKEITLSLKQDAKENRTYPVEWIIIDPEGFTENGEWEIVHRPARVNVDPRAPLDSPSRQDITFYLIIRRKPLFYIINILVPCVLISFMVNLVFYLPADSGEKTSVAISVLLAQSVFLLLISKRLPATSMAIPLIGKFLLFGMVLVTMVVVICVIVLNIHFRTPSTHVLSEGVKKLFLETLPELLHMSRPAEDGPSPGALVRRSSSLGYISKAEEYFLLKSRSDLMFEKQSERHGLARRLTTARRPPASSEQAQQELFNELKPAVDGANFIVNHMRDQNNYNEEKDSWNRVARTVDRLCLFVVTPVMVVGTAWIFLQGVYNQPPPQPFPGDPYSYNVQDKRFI

Row | SMILES | phospholipidosis score (HepG2 cells) | collagen I production (soluble procollagen I) [1] | deposited fibrillar collagen I (primary scar fibroblasts; 10 µM vs control and 1 µM) | collagen I coherency (primary scar fibroblasts; 1 and 10 µM vs control) | stability in cream formulations [2] | inhibition at 10 µM (Adenosine A1) [%] | inhibition at 10 µM (Adrenergic α1B) [%] | inhibition at 10 µM (Endothelin ETB) [%] | inhibition at 10 µM (GABAB1A) [%] | % Inh. (Imidazoline I2, Central) [%] | inhibition at 10 µM [3] [%] | % Inh. (Purinergic P2X) [%] | inhibition at 10 µM (Tachykinin NK1) [%] | inhibition at 30 µM (Cannabinoid CB2) [%]
1 | NC/C=C(\F)CS(=O)(=O)c1ccccc1 [PXS-4787] | 0 | significant and sustained reduction | significantly reduced | significantly reduced coherency | some unwanted degradation occurred | 1 | -2 | 3 | 6 | -10 | -3 | 8 | 10 | 
2 | NC/C=C(\F)C(F)(F)S(=O)(=O)c1ccccc1 [PXS-6302] |  |  |  |  |  |  |  |  |  |  |  |  |  | -4
